# Publication PMC4838304, “Effective Design of Multifunctional Peptides by Combining Compatible Functions” (PLoS Computational Biology, 2016)
# Ends that are not written are not given here.
# Key:
# pGREG546 plasmid = assay: Electrophoretic mobility shift assay (EMSA), DNA retention; format: binding; details: 1μg pGREG546, DNA to peptide charge ratio 1:1 or 1:4, 30 minutes
# Text: To test the ability of the designed peptides to bind nucleic acids, we evaluated by electrophoretic mobility shift assays (EMSAs) the retention of DNA by the designed peptides. Each EMSA was executed with peptide quantities that were multiples of the DNA to peptide charge ratio. A DNA to peptide charge ratio of 1:1 is represented by the number of positive charges of the peptide required to neutralize the negative charges of the DNA backbone. Retention in the gel is an indirect measure of the fraction of positive charges within the peptide participating in binding the DNA molecules. All EMSA assays were performed using the yeast plasmid pGREG546. As negative control, pGREG546 without any peptide was used, and as positive control the known DNA-binding cell penetrating peptide MPG was used. […] However, retention in the gel was observed when NLS was joined to any larger peptide fragment.
# Fig 4 DNA binding. (A) Quantification of DNA retention obtained from three independent electrophoretic mobility shift assays. All measurements are shown and horizontal bars denote the sample mean. Representative gels are shown in (B-C).
# 1μg of pGREG546 plasmid was pre-incubated with the required quantity of each peptide to result in a 1:1 or 1:4 peptide charge to DNA charge ratio. Samples were incubated for 30 minutes and loaded on a 1% Agarose gel in SB buffer. DNA affinity was quantified by measuring the mean pixel intensity of the DNA bands with Fiji (http://fiji.sc) and normalizing to the intensity range between an empty spot on the gel and the intensity of the pGREG546 plasmid without any added peptide. Analysis scripts for the EMSA experiments as well as the raw data can be found with the distributed source code at http://bis.ifc.unam.mx/software/dcf.
# [1] = system: pheromone-signaling pathway (Fus1-eGFP) in MATa cells; assay: Pheromone signaling assay, Fus1-GFP expression and shmoo phenotype; format: cell-based, Saccharomyces cerevisiae; details: BY4741 fus1::eGFP, 60 μM peptide (20 μM for α-factor), 3h
# Procedure: Finally, the activity of the α-factor embedded in the peptides was evaluated by activation of the pheromone-signaling pathway in MATa cells of S. cerevisiae. We monitored the pheromone signaling activity by following the expression of the GFP-labeled Fus1 protein. Fus1 is among the proteins with the highest pheromone-induced expression and is required for cell-cell fusion during mating. […] The observed phenotype was consistent with the activation of signaling showing a mating protrusion, often called “shmoo” as well as the absence of budding due to inhibition of the Cdc28 cyclin [35, 36].
# Fig 5 Pheromone activity. The pheromone signaling pathway is confirmed by the expression of Fus1-GFP, characteristic “shmoo” phenotype and the absence of budding observed in differential interference contrast (DIC) bright field. Concentrations were 20 μM for α-factor and 60 μM for all other peptides. The negative control was water without any peptide.
# Pheromone signaling induction in Saccharomyces cerevisiae was measured by induction of eGFP fluorescence in a BY4741 strain containing the Fus1-eGFP construct in place of the wild type Fus1 (MATa his3Δ1 leu2Δ0 met15Δ0 ura3Δ0 fus1::eGFP HIS3MX6, obtained from the yeast GFP collection). The BY4741 fus1::eGFP strain was grown overnight in YPD to mid-log phase and diluted to 10^6 cells/mL. Samples were treated with the respective peptide concentrations and incubated for 3h before mixing 1:1 with low-diffusivity agarose suspended on a covered glass slide. Images were taken with an Olympus FV10 confocal microscope using a 60x objective with […]. Images were analyzed using Fiji (www.fiji.sc). The only modifications applied to the images were separation of the bright field and GFP channels, adjustment of brightness and contrast to 50% and addition of scale bars.
# [2] = system: Escherichia coli strain DH5α; assay: microbe, parasite or virus in culture; format: cell-based; details: for MIC: DH5α, 24 h, read-out: E. coli MIC for 50% inhibition
# Text: If CPP, DNA binding and AMP activities are compatible, the designed peptides should inhibit bacterial growth. Here we exposed E. coli DH5α cells to varying low concentrations of the designed peptides as well as several controls (see Fig 4). […] To test whether α-factor was important for AMP activity we also tested pure α-factor, pure NLS, the optimized NLS fitting CPP rules (NLS-CE) and the Iztli-1 peptide, a previously reported peptide with an embedded α-factor specifically designed to have antibacterial activity. […] A linear trend could be observed between concentration and growth inhibition (regression lines with standard deviations shown in Fig 6). […] The minimal inhibitory concentrations for E. coli are reported in Table 2 (growth curves are shown in S4 Fig).
# Fig 6 Antibacterial activity. DH5α E. coli cells were treated with varying concentrations of peptides ranging from 0 to 16 μM for the peptides and 0 to 48 μM for Ampicillin. The relative area under the growth curve measured the growth inhibition. Measurements from four repetitions distributed onto two different plates are shown as dots colored by their respective concentrations. Linear regressions are shown as blue lines and their respective standard errors as blue shades. Dashed lines indicate the mean area under the curve for the H2O controls and its 50% value respectively. Minimal inhibitory concentrations to achieve 50% or 100% of cell growth inhibition are reported.
# Escherichia coli strain DH5α was grown for 12 hours to mid-log phase and diluted to 8·10^5 cells/ml by using the reference OD obtained by absorption spectroscopy. Each sample 100μL culture was treated with 50μL solution containing the respective peptide in the desired concentration or water in the case of the controls. Growth curves were measured on two 96 well half area plates with two replicates each followed for 24h using a plate reader (Synergy, USA). In order to minimize plate-specific effects due to variations in loading time or initial cell numbers, different plates measurements were normalized by the time-point where the water control samples reached their half-maximal OD before combining. The respective minimum from each growth curve was subtracted from the normalized data from individual or combined plates. Areas under the curves were obtained by applying a linear interpolation to the OD curves, which was then integrated exactly. Growth rates were obtained by log-transforming the growth curves, identifying the exponential phase by the linear parts in that log-transformation (OD600 between 0.05 and 0.5) and performing a linear regression in the exponential phase with the slope denoting the respective growth rate. All mentioned methodology was implemented in R (www.r-project.org) and is available as open source at http://github.com/cdiener/dcf.
# Using the slope of the linear regressions determined in these experiments, we estimated the minimal inhibitory concentration (MIC) for E. coli of our 3 CPP designed peptides (α-NLS-C, NLS-α-CE and chimera) and tested it experimentally.
# [3] = E. coli DH5α, peptides 0 to 16 μM
Sequence,"DNA binding in EMSA, in words (pGREG546 plasmid)","pheromone signaling activity (Fus1-GFP expression, phenotype) [1]",MIC [2] [µM],"concentration abolishing E. coli growth completely [2, 3] [µM]","concentration showing partial growth inhibition [2, 3] [µM]"
FRKWRRKPKKKRKVWWRKVKRRWHWLQLKPGQPMY [NLS-α-CE],effective DNA-binding activity,partial shmoo-like phenotypes,<2,2,–
KRRWRFVWMNPKKKRKVPPWPYLLWWHWLQLKPGQPMY [chimera],effective DNA-binding activity,partial shmoo-like phenotypes,4,–,2
